Source: US8362005B2, “Monocyclic amide CGRP receptor antagonists” (Merk. Sharp & Dohme Corp., priority 2008, dated 2013)
Ends that are not written are not given here.

Experiments:
middle meningeal artery = conditions: rats, electrical stimulation of the dura mater, prior administration; cited from earlier work
facial blood flow [1] = conditions: rat, trigeminal ganglion stimulation; cited from earlier work
[2] = target: T1, recombinant human CL receptor/RAMP1 (Homo sapiens, UniProt O60894+Q16602); test: Recombinant receptor binding assay (125I-hCGRP, membranes of HEK 293 cells); conditions: 10 pM 125I-hCGRP
T1 construct: expressed in transfected cells; membranes
Description: RECOMBINANT RECEPTOR: Human CL receptor (Genbank accession number L76380) was subcloned into the expression vector pIREShyg2 (BD Biosciences Clontech) as a 5′NheI and 3′ PmeI fragment. Human RAMP 1 (Genbank accession number AJ001014) was subcloned into the expression vector pIRESpuro2 (BD Biosciences Clontech) as a 5′NheI and 3′NotI fragment. HEK 293 cells (human embryonic kidney cells; ATCC #CRL-1573) were cultured in DMEM with 4.5 g/L glucose, 1 mM sodium pyruvate and 2 mM glutamine supplemented with 10% fetal bovine serum (FBS), 100 units/mL penicillin and 100 μg/mL streptomycin, and maintained at 37° C. and 95% humidity. Cells were subcultured by treatment with 0.25% trypsin with 0.1% EDTA in HBSS. Stable cell line generation was accomplished by co-transfecting 10 μg of DNA with 30 μg Lipofectamine 2000 (Invitrogen) in 75 cm^2 flasks. CL receptor and RAMP1 expression constructs were co-transfected in equal amounts. […]
[formula] Where Y is observed CPM bound, Ymax is total bound counts, Ymin is non specific bound counts, (Ymax−Ymin) is specific bound counts, % Imax is the maximum percent inhibition, % I min is the minimum percent inhibition, radiolabel is the probe, and the Kd is the apparent dissociation constant for the radioligand for the receptor as determined by Hot saturation experiments.

[3] = system: acute attacks of migraine; conditions: clinical trials; cited from earlier work
[4] = system: headache induced by CGRP infusion; conditions: control group, clinical; cited from earlier work
facial blood flow [5] = conditions: marmoset, electrical stimulation of the trigeminal ganglion; cited from earlier work

T1 sequence (Q16602 23-461): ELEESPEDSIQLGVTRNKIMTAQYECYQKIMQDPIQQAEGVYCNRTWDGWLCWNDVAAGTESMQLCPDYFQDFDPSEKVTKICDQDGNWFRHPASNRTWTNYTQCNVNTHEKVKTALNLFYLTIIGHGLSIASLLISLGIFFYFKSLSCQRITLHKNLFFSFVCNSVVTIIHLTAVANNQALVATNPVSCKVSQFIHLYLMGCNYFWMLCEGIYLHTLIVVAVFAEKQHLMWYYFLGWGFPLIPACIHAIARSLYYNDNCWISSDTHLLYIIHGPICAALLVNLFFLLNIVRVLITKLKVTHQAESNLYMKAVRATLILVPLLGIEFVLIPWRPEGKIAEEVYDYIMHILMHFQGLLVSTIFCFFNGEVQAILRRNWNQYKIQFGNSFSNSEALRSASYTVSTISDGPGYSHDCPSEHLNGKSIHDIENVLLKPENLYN
T1 sequence (O60894 27-148): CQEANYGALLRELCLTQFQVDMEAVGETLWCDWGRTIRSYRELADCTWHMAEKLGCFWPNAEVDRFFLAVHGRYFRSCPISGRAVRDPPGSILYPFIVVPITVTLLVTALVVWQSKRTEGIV

CGRP(8-37): a peptide CGRP antagonist; fragment of CGRP that lacks seven N-terminal amino acid residues (VTHRLAGLLSRSGGVVKNNFVPTNVGSKAF; ends and bridges not checked; UniProt P06881 90-119, looked up, fragment)
block of the increase in diameter of the middle meningeal artery (middle meningeal artery): blocked | inhibition of increased facial blood flow (facial blood flow [1]): inhibited

O=C(Cn1c(-c2ccccc2)c(Cl)nc(N2CCCC2)c1=O)Nc1ccc2c(c1)CC1(C2)C(=O)Nc2ncccc21 (stereo not drawn) [Example 5, 2-(5-Chloro-2-oxo-6-phenyl-3-pyrrolidin-1-ylpyrazin-1(2H)-yl)-N-(2′,-oxo-1,1′,2′,3-tetrahydrospiro[indene-2,3′-pyrrolo[2,3-b]pyridin]-5-yl)acetamide]
Ki [2]: 0.13 µM

NCCCC[C@H](NC(=O)[C@@H](Cc1cc(Br)c(O)c(Br)c1)NC(=O)N1CCC(N2Cc3ccccc3NC2=O)CC1)C(=O)N1CCN(c2ccncc2)CC1 [BIBN4096BS]
efficacy in treating acute attacks of migraine [3]: effective in treating acute attacks of migraine | prevention of headache induced by CGRP infusion [4]: able to prevent headache induced by CGRP infusion | block of the increase in facial blood flow (facial blood flow [5]): could be blocked
